Assay results as given in article PMC5943959, “Potent and Selective Carboxylic Acid Inhibitors of Tumor-Associated Carbonic Anhydrases IX and XII” (Molecules : A Journal of Synthetic Chemistry and Natural …, 2017).
Read-outs that look alike come from different tables or passages of the source.

What was measured:
Type in all cases: biochemical
hCA I = target: T1, hCA I (Homo sapiens, UniProt P00915); test: stopped-flow CO2 hydrase assay, hCA I
T1 construct: made in house

hCA II = target: T2, hCA II (Homo sapiens, UniProt P00918); test: stopped-flow CO2 hydrase assay, hCA II
T2 construct: made in house

hCA IV = target: T3, hCA IV (Homo sapiens, UniProt P22748); test: stopped-flow CO2 hydrase assay, hCA IV
T3 construct: made in house

hCA VA = target: T4, hCA VA (Homo sapiens, UniProt P35218); test: stopped-flow CO2 hydrase assay, hCA VA
T4 construct: made in house

hCA VII = target: T5, hCA VII (Homo sapiens, UniProt P43166); test: stopped-flow CO2 hydrase assay, hCA VII
T5 construct: made in house

hCA IX = target: T6, hCA IX (Homo sapiens, UniProt Q16790); test: stopped-flow CO2 hydrase assay, hCA IX; conditions: for Selectivity Index hCA II/hCA IX: ratio of Ki values; for Ki: recombinant enzyme, errors ± 5–10%, 3 assays
T6 construct: made in house

hCA XII = target: T7, hCA XII (Homo sapiens, UniProt O43570); test: stopped-flow CO2 hydrase assay, hCA XII; conditions: for Selectivity Index hCA II/hCA XII: ratio of Ki values
T7 construct: made in house

[1] = recombinant enzyme, errors ± 5–10%, 3 assays, read-out: Ki hCA I
[2] = recombinant enzyme, errors ± 5–10%, 3 assays, read-out: Ki hCA II
[3] = recombinant enzyme, errors ± 5–10%, 3 assays, read-out: Ki hCA IV
[4] = recombinant enzyme, errors ± 5–10%, 3 assays, read-out: Ki hCA VA
[5] = recombinant enzyme, errors ± 5–10%, 3 assays, read-out: Ki hCA VII
[6] = recombinant enzyme, errors ± 5–10%, 3 assays, read-out: Ki hCA XII

T3 sequence (P22748 19-312): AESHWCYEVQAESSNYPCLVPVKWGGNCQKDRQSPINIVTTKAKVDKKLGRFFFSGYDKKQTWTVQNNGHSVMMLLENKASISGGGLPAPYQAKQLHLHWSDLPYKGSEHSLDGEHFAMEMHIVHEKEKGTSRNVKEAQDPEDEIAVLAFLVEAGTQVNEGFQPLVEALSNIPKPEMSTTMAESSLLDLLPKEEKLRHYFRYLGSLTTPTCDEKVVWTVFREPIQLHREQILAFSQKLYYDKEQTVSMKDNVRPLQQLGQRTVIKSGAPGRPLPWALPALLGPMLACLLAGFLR
T5 sequence (P43166 whole entry): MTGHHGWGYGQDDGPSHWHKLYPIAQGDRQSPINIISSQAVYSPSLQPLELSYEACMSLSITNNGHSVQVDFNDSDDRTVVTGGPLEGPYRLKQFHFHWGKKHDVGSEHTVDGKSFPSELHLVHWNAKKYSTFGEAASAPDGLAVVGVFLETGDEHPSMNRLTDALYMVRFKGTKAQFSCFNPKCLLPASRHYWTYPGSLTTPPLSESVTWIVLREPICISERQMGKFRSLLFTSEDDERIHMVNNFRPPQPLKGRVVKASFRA
T4 sequence (P35218 39-305): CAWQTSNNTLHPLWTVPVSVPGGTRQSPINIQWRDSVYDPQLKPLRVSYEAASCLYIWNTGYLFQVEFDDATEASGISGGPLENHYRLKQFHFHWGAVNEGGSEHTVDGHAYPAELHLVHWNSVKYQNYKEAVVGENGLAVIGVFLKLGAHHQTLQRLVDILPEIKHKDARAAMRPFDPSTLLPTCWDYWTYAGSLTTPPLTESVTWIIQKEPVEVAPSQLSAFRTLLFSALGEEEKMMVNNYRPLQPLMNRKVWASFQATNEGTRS
T1 sequence (P00915 whole entry): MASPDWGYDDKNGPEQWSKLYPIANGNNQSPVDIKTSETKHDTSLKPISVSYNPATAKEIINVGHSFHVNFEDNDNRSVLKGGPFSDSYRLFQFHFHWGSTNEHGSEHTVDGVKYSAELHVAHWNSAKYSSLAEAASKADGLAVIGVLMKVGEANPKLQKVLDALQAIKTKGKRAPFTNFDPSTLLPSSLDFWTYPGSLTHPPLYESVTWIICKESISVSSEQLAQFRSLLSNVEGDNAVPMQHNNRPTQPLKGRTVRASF
T7 sequence (O43570 25-354): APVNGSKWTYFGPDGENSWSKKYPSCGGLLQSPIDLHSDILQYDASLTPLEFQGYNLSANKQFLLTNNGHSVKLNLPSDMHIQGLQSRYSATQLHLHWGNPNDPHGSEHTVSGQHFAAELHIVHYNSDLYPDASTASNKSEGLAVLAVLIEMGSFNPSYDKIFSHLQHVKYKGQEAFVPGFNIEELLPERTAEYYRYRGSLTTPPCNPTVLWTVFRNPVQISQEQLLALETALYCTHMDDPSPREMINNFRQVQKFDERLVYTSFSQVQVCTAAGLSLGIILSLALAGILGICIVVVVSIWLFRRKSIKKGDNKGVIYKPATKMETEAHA

SMILES | Ki (hCA I; [1]) | Ki (hCA II; [2]) | Ki (hCA IV; [3]) | Ki (hCA VA; [4]) | hCA VII inhibition (in words) (hCA VII) | Ki (hCA VII; [5]) | Selectivity Index hCA II/hCA IX (hCA IX) | Ki (hCA IX) | Selectivity Index hCA II/hCA XII (hCA XII) | Ki (hCA XII; [6]) | Ki (hCA I) | Ki (hCA VA) | Ki (hCA II) | Ki (hCA IV) | Ki (hCA VII) | Ki (hCA XII) | Ki against hCA II, fold higher than that of AAZ (hCA II; relative to AAZ) | Ki against hCA II, fold higher than that of GV2-20 (hCA II; relative to GV2-20) | drop of inhibitory potency against hCA VII compared to GV2-20 (hCA VII; relative to GV2-20) | hCA XII inhibition (in words) (hCA XII)
O=C(O)c1ccc(NCc2cccnc2)c([N+](=O)[O-])c1 [Compound 13] | > 50 µM | > 50 µM | > 50 µM | 0.117 µM | inactive | > 50 µM | >471.7 | 0.106 µM | >79.0 | 0.633 µM | – | – | – | – | – | – | – | – | – | –
O=C(O)c1ccc(Sc2ccccc2C(=O)O)c([N+](=O)[O-])c1 [Compound 4] | – | 2.63 µM | > 50 µM | – | – | > 50 µM | 15.3 | 0.172 µM | – | > 50 µM | 6.02 µM | > 50 µM | – | – | – | – | – | – | – | –
CC1=NN(c2ccc(C)cc2)C(=O)/C1=C/Nc1ccc(C(=O)O)cc1[N+](=O)[O-] [Compound 16] | – | > 50 µM | 6.03 µM | 0.154 µM | – | 1.73 µM | >1661.1 | 0.0301 µM | >142.0 | 0.352 µM | > 50 µM | – | – | – | – | – | – | – | – | –
O=C(O)c1ccc(Sc2nnnn2-c2ccccc2)c([N+](=O)[O-])c1 [Compound 17] | > 50 µM | > 50 µM | 3.56 µM | 0.739 µM | – | > 50 µM | >2136.8 | 0.0234 µM | >113.4 | 0.441 µM | – | – | – | – | – | – | – | – | – | –
O=C(O)c1ccc(NCCc2ccc(Cl)cc2)c([N+](=O)[O-])c1 [Compound 5] | – | > 50 µM | > 50 µM | 1.16 µM | inactive | > 50 µM | >326.8 | 0.153 µM | >57.9 | 0.863 µM | 8.15 µM | – | – | – | – | – | – | – | – | –
O=C(O)c1ccc(N2CCc3ccccc32)c([N+](=O)[O-])c1 [Compound 3] | > 50 µM | 7.3 µM | > 50 µM | 1.31 µM | – | 0.84 µM | 34.9 | 0.209 µM | – | > 50 µM | – | – | – | – | – | – | – | – | – | –
Cc1cc(C(=O)Nc2cc(C(=O)O)cc([N+](=O)[O-])c2)no1 [Compound 9] | – | 8.5 µM | 8.27 µM | – | – | 0.762 µM | 51.5 | 0.165 µM | 11.3 | 0.753 µM | > 50 µM | > 50 µM | – | – | – | – | – | – | – | –
CC(C)(C)OC(=O)N1CCC(Nc2ccc(C(=O)O)cc2[N+](=O)[O-])CC1 [Compound 15] | – | > 50 µM | 9.2 µM | 0.11 µM | – | > 50 µM | >2024.3 | 0.0247 µM | >69.1 | 0.724 µM | > 50 µM | – | – | – | – | – | – | – | – | –
O=C(O)c1ccc(Sc2ccccn2)c([N+](=O)[O-])c1 [Compound 10] | 6.65 µM | > 50 µM | > 50 µM | 0.142 µM | – | 0.665 µM | >3125 | 0.016 µM | >609.01 | 0.0821 µM | – | – | – | – | – | – | – | – | – | –
O=C(O)c1ccc(Sc2nnc(Sc3ccc(C(=O)O)cc3[N+](=O)[O-])s2)c([N+](=O)[O-])c1 [Compound 8] | – | – | – | – | inactive | – | – | 0.0263 µM | – | – | 6.45 µM | > 50 µM | 0.801 µM | 8.8 µM | > 50 µM | 0.912 µM | – | – | – | –
N#Cc1ccc(NCCc2ccccc2)c([N+](=O)[O-])c1 [Compound 19] | – | > 50 µM | > 50 µM | 0.0925 µM | inactive | > 50 µM | >632.1 | 0.0791 µM | – | 0.648 µM | > 50 µM | – | – | – | – | – | – | – | – | –
Cc1ccc(S(=O)(=O)c2ccc(C(=O)O)cc2[N+](=O)[O-])cc1 [Compound 11] | – | > 50 µM | > 50 µM | 0.356 µM | – | > 50 µM | >857.6 | 0.0583 µM | >64.3 | 0.778 µM | > 50 µM | – | – | – | – | – | – | – | – | –
O=C(O)c1ccc(Sc2nnc(-c3cccc(Br)c3)o2)c([N+](=O)[O-])c1 [Compound 1] | 0.7 µM | 0.655 µM | 5.09 µM | 0.826 µM | – | 0.325 µM | 11.88 | 0.0551 µM | 23.99 | 0.0273 µM | – | – | – | – | – | – | around 54 fold | around 10 fold | around 37 fold | –
CCOC(=O)C1CCN(c2ccc(C(=O)O)cc2[N+](=O)[O-])CC1 [Compound 6] | – | 8.05 µM | > 50 µM | – | – | > 50 µM | 263.1 | 0.0306 µM | – | > 50 µM | 8.21 µM | > 50 µM | – | – | – | – | – | – | – | not active
O=C(CSc1nnc(-c2ccncc2)s1)Nc1cc(C(=O)O)cc([N+](=O)[O-])c1 [Compound 14] | – | > 50 µM | > 50 µM | 0.449 µM | – | > 50 µM | >2174.0 | 0.023 µM | >103.7 | 0.482 µM | > 50 µM | – | – | – | – | – | – | – | – | –
CC1OC(Nc2cc(C(=O)O)cc([N+](=O)[O-])c2)C(O)C(O)C1O (centres unmarked) [Compound 2] | – | 7.24 µM | > 50 µM | – | – | > 50 µM | 68.3 | 0.106 µM | – | > 50 µM | 5.65 µM | 1.35 µM | – | – | – | – | – | – | – | –
CS(=O)(=O)c1ccc(C(=O)O)cc1[N+](=O)[O-] [Compound 7] | – | 7.31 µM | > 50 µM | – | – | > 50 µM | 264.9 | 0.0276 µM | – | > 50 µM | > 50 µM | 1.46 µM | – | – | – | – | – | – | – | not active
CC(=O)Nc1cccc(Nc2c([N+](=O)[O-])cc(C(=O)O)cc2[N+](=O)[O-])c1 [Compound 12] | – | > 50 µM | > 50 µM | 0.144 µM | – | > 50 µM | – | 0.082 µM | – | 0.0919 µM | > 50 µM | – | – | – | – | – | – | – | – | –
O=C(Cc1ccccc1)Nc1ccc(C(=O)O)cc1 [Compound 18] | 2.73 µM | 7.63 µM | > 50 µM | 0.262 µM | – | > 50 µM | 104.8 | 0.0728 µM | 12.1 | 0.629 µM | – | – | – | – | – | – | – | – | – | –
